In patent publication US7687644B2, “Adamantyl pyrrolidin-2-one derivatives as 11-beta hydroxysteroid dehydrogenase inhibitors” (Janssen Pharmaceutica NV, priority 2004, dated 2010):

Tests used:
11β-HSD2 = target: T1, 11β-HSD2 (Homo sapiens, UniProt P80365); assay: Cellular assay, 11β-HSD2 activity in HepG2 cells; assay type: cell-based; parameters: endogenous in cells; host or cells: HepG2 (ATCC HB-8065); details: 4 hour pre-incubation, read-out: [C2] HSD2 cellular HepG2 Score
T1 sequence (P80365 1-405): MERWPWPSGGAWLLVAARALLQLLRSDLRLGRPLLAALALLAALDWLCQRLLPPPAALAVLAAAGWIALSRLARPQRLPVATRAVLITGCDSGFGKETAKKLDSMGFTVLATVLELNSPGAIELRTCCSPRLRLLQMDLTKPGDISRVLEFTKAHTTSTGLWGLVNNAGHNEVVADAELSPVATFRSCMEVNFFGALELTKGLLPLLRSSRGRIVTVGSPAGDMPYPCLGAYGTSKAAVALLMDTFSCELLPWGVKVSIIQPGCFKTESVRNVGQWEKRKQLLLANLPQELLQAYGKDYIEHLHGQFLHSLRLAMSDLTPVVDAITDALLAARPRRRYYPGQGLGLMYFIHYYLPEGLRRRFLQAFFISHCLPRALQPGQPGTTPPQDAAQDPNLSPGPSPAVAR
Procedure: The effects on 11β-HSD2 activity was studied in HepG2 and LCC-PK1-cells HepG2-cells (ATCC HB-8065) were seeded in 12 well plates at a density of 100,000′ cells/ml and grown at 37° C. in a humidified 5% CO2 atmosphere in MEM-Rega-3 medium supplemented with 10% heat inactivated foetal calf serum, 2 mM L-glutamine and sodium bicarbonate). Medium was refreshed twice a week.
Following a 4 hour pre-incubation with test compound, 0.5 μCi ^3H-cortisol or corticosterone, was added to the cultures. One hour later, the medium was extracted on Extrelut^3-columns with 15 ml diethyl ether and the extract was analysed by HPLC as described above.
As for the enzymatic assays, the compounds to be tested were taken from a stock is solution and tested at a final concentration ranging from −10^−5M to 3·10^−9M. From the thus obtained dose response curves, the pIC50 value was calculated and scored as follows; Score 1=pIC50 value<5, Score 2=pIC50 value in the range of 5 to 6, Score 3=pIC50 value>6. Some of the thus obtained results are summarized in the table below (in this table NT stands for Not Tested).

11β-HSD1 [1] = target: 11β-HSD1 (Homo sapiens, UniProt P28845); assay: Enzymatic assay, 11β-HSD1 reductase activity (conversion of cortisone into cortisol); assay type: biochemical; details: recombinant protein, 2 μM cortisone, 45 minutes at 37° C.; read-out: [C1] HSD1-prot Reduct Score
Procedure: The effects of compounds on 11β-HSD1 dependent conversion of cortisone into cortisol (reductase activity) was studied in a reaction mixture containing 30 mM Tris-HCl buffer pH 7.2, 180 μM NADPH, 1 mM EDTA, 2 μM cortisone, 1 μl drug and/or solvent and 11 μg recombinant protein in a final volume of 100 μl.
All incubations were performed for 45 minutes at 37° C. in a water bath. The reaction was stopped by adding 100 μl acetonitrile containing 20 μg corticosterone as internal standard. After centrifugation, the product formation was analysed in the supernatant by HPLC on a Hypersyl BDS-C18 column using 0.05 mM ammonium acetate/methanol (50/50) as solvent. In all of the aforementioned assays, the drugs to be tested were taken from a stock solution and tested at a final concentration ranging from −10^−5M to 3·10^−9M. From the thus obtained dose response curves, the pIC50 value was calculated and scored as follows; Score 1=pIC50 value<5, Score 2=pIC50 value in the range of 5 to 6, Score 3=pIC50 value>6. Some of the thus obtained results are summarized in the table below (in this table NT stands for Not Tested).

11β-HSD1 [2] = target: T2, 11β-HSD1 (Mus musculus, UniProt P50172); assay: Cellular assay, 11β-HSD1 activity in differentiated 3T3-L1 cells; assay type: cell-based; details: 4 hour pre-incubation, read-out: [C2] HSD1 cellular 3T3-L1 Score
T2 construct: endogenous in cells; host or cells: 3T3-L1 (ATCC-CL-173), differentiated into adipocytes
Procedure: The effects on 11β-HSD1 activity was measured in differentiated 3T3-L1 cells and rat hepatocytes.
Medium was refreshed twice a week.
One hour later, the medium was extracted on Extrelut^3-columns with 15 ml diethyl ether and the extract was analysed by HPLC as described above.
As for the enzymatic assays, the compounds to be tested were taken from a stock is solution and tested at a final concentration ranging from −10^−5M to 3·10^−9M.

T2 sequence (P50172 whole entry): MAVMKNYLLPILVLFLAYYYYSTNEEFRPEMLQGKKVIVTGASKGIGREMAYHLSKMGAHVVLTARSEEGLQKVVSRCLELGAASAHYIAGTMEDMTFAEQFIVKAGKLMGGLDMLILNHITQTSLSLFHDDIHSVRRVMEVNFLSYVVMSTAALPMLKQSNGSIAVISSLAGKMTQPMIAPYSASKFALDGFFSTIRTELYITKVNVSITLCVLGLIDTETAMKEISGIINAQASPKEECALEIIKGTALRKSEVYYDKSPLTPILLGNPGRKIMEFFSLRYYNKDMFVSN
Sequence of 11β-HSD1 (Homo sapiens, UniProt P28845) (P28845 whole entry, species assumed): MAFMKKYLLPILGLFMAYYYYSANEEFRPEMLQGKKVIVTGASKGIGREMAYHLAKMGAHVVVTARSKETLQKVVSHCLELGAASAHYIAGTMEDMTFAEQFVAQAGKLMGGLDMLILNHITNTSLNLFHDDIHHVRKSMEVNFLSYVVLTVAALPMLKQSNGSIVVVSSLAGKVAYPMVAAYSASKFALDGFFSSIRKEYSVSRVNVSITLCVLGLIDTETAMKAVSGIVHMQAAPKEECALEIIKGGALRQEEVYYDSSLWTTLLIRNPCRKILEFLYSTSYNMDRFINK

CC1(Cc2ccc(F)cc2)CCN(C2C3CC4CC(C3)CC2C4)C1=O (stereo not drawn) [Compound 30]
IC50 (11β-HSD2): > 10000 nM | IC50 (11β-HSD1 [1]): < 1000 nM | IC50 (11β-HSD1 [2]): < 1000 nM

Cc1cccc(CC2(C)CCN(C3C4CC5CC(C4)CC3C5)C2=O)c1F (stereo not drawn) [Compound 2]
melting point: 120.5 to 122 °C | IC50 (11β-HSD2): > 10000 nM | IC50 (11β-HSD1 [1]): < 1000 nM | IC50 (11β-HSD1 [2]): < 1000 nM

Cc1cc(C)cc(CC2(C)CCN(C3C4CC5CC(C4)CC3C5)C2=O)c1 (stereo not drawn) [Compound 19]
IC50 (11β-HSD1 [2]): < 1000 nM

CC1(Cc2ccccc2)CCN(C2C3CC4CC(C3)CC2C4)C1=O (stereo not drawn) [Compound 32]
IC50 (11β-HSD1 [2]): < 1000 nM

O=C1C(Cc2ccc(OC(F)(F)F)cc2)CCN1C1C2CC3CC(C2)CC1C3 (stereo not drawn) [Compound 15]
IC50 (11β-HSD1 [2]): > 10000 nM

O=C1N(C2C3CC4CC(C3)CC2C4)C2CCC1(Cc1ccccc1)CC2 (stereo not drawn) [Compound 36]
IC50 (11β-HSD1 [2]): < 1000 nM

Cc1cccc(C)c1CC1CCN(C2C3CC4CC(C3)CC2C4)C1=O (stereo not drawn) [Compound 12]
IC50 (11β-HSD1 [2]): > 10000 nM

O=C1C(Cc2ccc(F)cc2)CCN1C1C2CC3CC(C2)CC1C3 (stereo not drawn) [Compound 14]
IC50 (11β-HSD2): > 10000 nM | IC50 (11β-HSD1 [1]): < 1000 nM | IC50 (11β-HSD1 [2]): < 1000 nM

Cc1cc(C)cc(CC2CCN(C3C4CC5CC(C4)CC3C5)C2=O)c1 (stereo not drawn) [Compound 11]
IC50 (11β-HSD1 [2]): < 1000 nM

COc1cccc(CC2(C)CCN(C3C4CC5CC(C4)CC3C5)C2=O)c1 (stereo not drawn) [Compound 29]
IC50 (11β-HSD2): 1000 to 10000 nM | IC50 (11β-HSD1 [1]): < 1000 nM | IC50 (11β-HSD1 [2]): < 1000 nM

COc1cccc(CC2CCN(C3C4CC5CC(C4)CC3C5)C2=O)c1 (stereo not drawn) [Compound 3]
IC50 (11β-HSD2): > 10000 nM | IC50 (11β-HSD1 [1]): < 1000 nM | IC50 (11β-HSD1 [2]): < 1000 nM

O=C1C(Cc2ccc(OC(F)(F)F)cc2)CCCN1C1C2CC3CC(C2)CC1C3 (stereo not drawn) [Compound 23]
IC50 (11β-HSD1 [2]): > 10000 nM

Cc1cc(C)cc(CC2CCCN(C3C4CC5CC(C4)CC3C5)C2=O)c1 (stereo not drawn) [Compound 24]
IC50 (11β-HSD1 [2]): > 10000 nM

O=C1C(Cc2ccccc2)CCN1[C@@H]1CC[C@]2(O)CC3CC2[C@H]1C3 (stereo partly drawn) [Compound 37]
IC50 (11β-HSD2): > 10000 nM | IC50 (11β-HSD1 [2]): < 1000 nM

O=C1C(Cc2cccc(Br)c2)CCN1C1C2CC3CC(C2)CC1C3 (stereo not drawn) [Compound 5]
IC50 (11β-HSD1 [2]): < 1000 nM

O=C1C(Cc2ccccc2)CCN1C1C2CC3CC(C2)CC1C3 (stereo not drawn) [Compound 33]
IC50 (11β-HSD1 [2]): < 1000 nM

O=C1N(C2C3CC4CC(C3)CC2C4)C2CCC1(c1ccccc1)CC2 (stereo not drawn) [Compound 34]
IC50 (11β-HSD1 [2]): > 10000 nM

COc1cc(CC2CCN(C3C4CC5CC(C4)CC3C5)C2=O)cc(OC)c1 (stereo not drawn) [Compound 8]
IC50 (11β-HSD2): > 10000 nM | IC50 (11β-HSD1 [1]): < 1000 nM | IC50 (11β-HSD1 [2]): < 1000 nM

O=C1C(Cc2ccc(Cl)cc2)CCN1C1C2CC3CC(C2)CC1C3 (stereo not drawn) [Compound 13]
IC50 (11β-HSD2): > 10000 nM | IC50 (11β-HSD1 [1]): < 1000 nM | IC50 (11β-HSD1 [2]): > 10000 nM

O=C1C(Cc2cccc(OC(F)(F)F)c2)CCN1C1C2CC3CC(C2)CC1C3 (stereo not drawn) [Compound 4]
IC50 (11β-HSD1 [2]): < 1000 nM
